Assay: Viscosity of crude blended with dimethyl sulfide (rheometer)
Assay type: physicochemical
Procedure: The quality of dimethyl sulfide as an oil recovery agent based on the crude oil viscosity lowering properties of dimethyl sulfide was evalulated. Three crude oils having widely disparate viscosity characteristics—an African Waxy crude, a Middle Eastern asphaltic crude, and a Canadian asphaltenic crude—were blended with dimethyl sulfide. A control sample of each crude was prepared containing no dimethyl sulfide, and samples of each crude were prepared and blended with dimethyl sulfide to prepare crude samples containing increasing concentrations of dimethyl sulfide. Each sample of each of the crudes was heated to 60° C. to dissolve any waxes therein and to permit weighing of a homogeneous liquid, weighed, allowed to cool overnight, then blended with a selected quantity of dimethyl sulfide. The samples of the crude/dimethyl sulfide blend were then heated to 60° C. and mixed to ensure homogeneous blending of the dimethyl sulfide in the samples. Absolute (dynamic) viscosity measurements of each of the samples were taken using rheometer and closed cup sensor assembly. Viscosity measurements of each of the samples of the West African waxy crude and the Middle Eastern asphaltic crude were taken at 20° C., 40° C., 60° C., 80° C., and then again at 20° C. after cooling from 80° C., where the second measurement at 20° C. is taken to measure the viscosity without the presence of waxes since wax formation occurs slowly enough to permit viscosity measurement at 20° C. without the presence of wax. Viscosity measurements of each of the samples of the Canadian asphaltenic crude were taken at 5° C., 10° C., 20° C., 40° C., 60° C., 80° C., The measured viscosities for each of the crudes are shown in Tables 3, 4, and 5 below.

SMILES: CSC [Dimethyl Sulfide, dimethyl sulfide]
- Viscosity of Topped Canadian asphaltenic Crude (DMS 1.43 wt. %, 20° C.): 212525 mPa s
- Viscosity of Topped Canadian asphaltenic Crude (DMS 1.43 wt. %, 40° C.): 14721 mPa s
- Viscosity of Topped Canadian asphaltenic Crude (DMS 1.43 wt. %, 60° C.): 2209 mPa s
- Viscosity of Topped Canadian asphaltenic Crude (DMS 1.43 wt. %, 80° C.): 538 mPa s
- Viscosity of Topped Canadian asphaltenic Crude (DMS 2.07 wt. %, 20° C.): 134880 mPa s
- Viscosity of Topped Canadian asphaltenic Crude (DMS 2.07 wt. %, 40° C.): 10523 mPa s
- Viscosity of Topped Canadian asphaltenic Crude (DMS 2.07 wt. %, 60° C.): 1747 mPa s
- Viscosity of Topped Canadian asphaltenic Crude (DMS 2.07 wt. %, 80° C.): 427 mPa s
- Viscosity of Topped Canadian asphaltenic Crude (DMS 4.87 wt. %, 20° C.): 28720 mPa s
- Viscosity of Topped Canadian asphaltenic Crude (DMS 4.87 wt. %, 40° C.): 3235 mPa s
- Viscosity of Topped Canadian asphaltenic Crude (DMS 4.87 wt. %, 60° C.): 985 mPa s
- Viscosity of Topped Canadian asphaltenic Crude (DMS 4.87 wt. %, 80° C.): 328 mPa s
- Viscosity of Topped Canadian asphaltenic Crude (DMS 8.01 wt. %, 20° C.): 5799 mPa s
- Viscosity of Topped Canadian asphaltenic Crude (DMS 8.01 wt. %, 40° C.): 982 mPa s
- Viscosity of Topped Canadian asphaltenic Crude (DMS 8.01 wt. %, 60° C.): 275 mPa s
- Viscosity of Topped Canadian asphaltenic Crude (DMS 8.01 wt. %, 80° C.): 106 mPa s
- Viscosity of Topped Canadian asphaltenic Crude (DMS 9.80 wt. %, 20° C.): 2760 mPa s
- Viscosity of Topped Canadian asphaltenic Crude (DMS 9.80 wt. %, 40° C.): 571 mPa s
- Viscosity of Topped Canadian asphaltenic Crude (DMS 9.80 wt. %, 60° C.): 173 mPa s
- Viscosity of Topped Canadian asphaltenic Crude (DMS 9.80 wt. %, 80° C.): 73 mPa s
- Viscosity of Topped Canadian asphaltenic Crude (DMS 14.81 wt. %, 5° C.): 1794 mPa s
- Viscosity of Topped Canadian asphaltenic Crude (DMS 14.81 wt. %, 10° C.): 1155 mPa s
- Viscosity of Topped Canadian asphaltenic Crude (DMS 14.81 wt. %, 20° C.): 548 mPa s
- Viscosity of Topped Canadian asphaltenic Crude (DMS 14.81 wt. %, 40° C.): 159 mPa s
- Viscosity of Topped Canadian asphaltenic Crude (DMS 14.81 wt. %, 60° C.): 64 mPa s
- Viscosity of Topped Canadian asphaltenic Crude (DMS 14.81 wt. %, 80° C.): 32 mPa s
- Viscosity of Topped Canadian asphaltenic Crude (DMS 19.78 wt. %, 20° C.): 188 mPa s
- Viscosity of Topped Canadian asphaltenic Crude (DMS 19.78 wt. %, 40° C.): 69 mPa s
- Viscosity of Topped Canadian asphaltenic Crude (DMS 19.78 wt. %, 60° C.): 33 mPa s
- Viscosity of Topped Canadian asphaltenic Crude (DMS 19.78 wt. %, 80° C.): 19 mPa s
- Viscosity of Topped Canadian asphaltenic Crude (DMS 29.88 wt. %, 5° C.): 113 mPa s
- Viscosity of Topped Canadian asphaltenic Crude (DMS 29.88 wt. %, 10° C.): 81 mPa s
- Viscosity of Topped Canadian asphaltenic Crude (DMS 29.88 wt. %, 20° C.): 51 mPa s
- Viscosity of Topped Canadian asphaltenic Crude (DMS 29.88 wt. %, 40° C.): 22 mPa s
- Viscosity of Topped Canadian asphaltenic Crude (DMS 29.88 wt. %, 60° C.): 13 mPa s
- Viscosity of Topped Canadian asphaltenic Crude (DMS 29.88 wt. %, 80° C.): 8 mPa s
- Viscosity of Topped Canadian asphaltenic Crude (DMS 39.61 wt. %, 5° C.): 23 mPa s
- Viscosity of Topped Canadian asphaltenic Crude (DMS 39.61 wt. %, 10° C.): 20 mPa s
- Viscosity of Topped Canadian asphaltenic Crude (DMS 39.61 wt. %, 20° C.): 14 mPa s
- Viscosity of Topped Canadian asphaltenic Crude (DMS 39.61 wt. %, 40° C.): 8 mPa s
- Viscosity of Topped Canadian asphaltenic Crude (DMS 39.61 wt. %, 60° C.): 6 mPa s
- Viscosity of Topped Canadian asphaltenic Crude (DMS 39.61 wt. %, 80° C.): 4 mPa s
